In series [1] the test system is Helicobacter pylori strains. The series is described as follows: Micro-broth dilution antimicrobial activity (MIC, CLSI). It is filed as cell-based. The settings on record: growth inhibited >90% compared to growth control.
Experimental: Micro-broth dilution method was used to determine the antimicrobial activity of boswellic acid composition against Helicobacter pylori strains. The anti-bacterial minimum inhibitory concentration (MIC) study was performed as per the Clinical and Laboratory Standards Institute (CLSI) guidelines.
The test compound (composition comprising boswellic acid) was dissolved using Methanol to a concentration of 12.8 mg/mL (stock). Amoxicillin was dissolved in sterile Phosphate buffer to a concentration of 2 mg/mL.
The test system of series [2] is Dextran Sodium Sulphate (2.5% w/v) induced colitis in BALB/c mice. The series is described as follows: Dextran Sodium Sulphate induced colitis, gut-protective effect. It is filed as in vivo. The procedure:
The compositions comprising boswellic acids are also evaluated for their gut-protective effect using Dextran Sodium Sulphate (2.5% w/v) induced colitis in BALB/c mice. Body weights of mice were recorded during study period, macroscopic examination was carried out for all terminal sacrificed, moribund and found dead animals. Colon and rectum were collected, and histopathology was performed. The composition comprising boswellic acid was also evaluated for gut-protective effect through antimicrobial activity against Helicobacter pylori strains using Micro-broth dilution method. The anti-bacterial minimum inhibitory concentration (MIC) was checked for the composition against Amoxycillin.
The gut-protective effect of composition comprising boswellic acids was evaluated using Dextran Sodium Sulphate (2.5% w/v) induced colitis in BALB/c mice. Dextran Sodium Sulphate (DSS) (36000 to 50000 Daltons molecular weight) was added in autoclaved drinking water and administered to the animals over 10 days for inducing disease condition. Group 2 served as disease control. Groups 3, 4 and 5 were treated with Test Item 1 (G3), Test Item 2 (G4) and Reference (Sulfasalazine—G5), respectively. Concurrent vehicle control group (G1) was also maintained.
Onset of colitis symptoms was monitored by measuring percent body weight, stool consistency (SC) and fecal occult blood (FOB). During the study period (10 days), Disease Activity Index (DAI) was calculated from scores of percent body weight, SC and FOB and were reported. Treatment was continued along with the DSS administration in drinking water up to 10 days by oral administration of Test and Reference Item as follows: • Group 1—Normal control (no DSS & no treatment) • Group 2—Disease control (only DSS, no treatment) • Group 3—DSS+Boswellic acid composition of Example 2: 41 mg/kg • Group 4—DSS+Boswellic acid composition of Example 4: 41 mg/kg • Group 5—DSS+Sulfasalazine: 30 mg/kg
Body weights were recorded daily throughout the study period. Macroscopic examination was carried out for all the terminal sacrificed, moribund and found dead animals. Colon and rectum were collected, and histopathology was performed.

From US20220362184A1, “GUT-PROTECTIVE COMPOSITIONS COMPRISING BOSWELLIC ACID” (INVENTIA HEALTHCARE LIMITED, priority 2019, published 2022) come the findings set out here.

Consider `CC1(C)S[C@@H]2[C@H](NC(=O)[C@H](N)c3ccc(O)cc3)C(=O)N2[C@H]1C(=O)O` [Amoxicillin], for which, in series [1], the minimum inhibitory concentration (MIC) is less than 0.25 µg/mL.

Consider `O=C(O)c1cc(/N=N/c2ccc(S(=O)(=O)Nc3ccccn3)cc2)ccc1O` [Sulfasalazine], for which, in series [2] (10 days oral with DSS, compositions 41 mg/kg, sulfasalazine 30 mg/kg), the “percentage of mortality during the study period” value stood at 20%. Moreover, the “% body weight change” value in series [2] (Day 10, disease control −20.34%, vehicle control −0.44%) is recorded as −17.77%. Also, the “Mean Disease Activity Index (DAI)” value in series [2] (females, Day 10, disease control 3.9) is reported as 3.2; in series [2] (males, Day 10, disease control 3.1), 3.6.
